# Measured values as given in patent US20080167314A1, “Condensed Imidazole Compound And Use Thereof” (priority 2004, published 2008).
row,Structure (SMILES),melting point [°C]
1,"Nc1cc(-c2c(-c3cccc(Cl)c3)nc3ccc(Cl)nn23)ccn1 [Example Compound 13-1, 4-[6-chloro-2-(3-chlorophenyl)imidazo[1,2-b]pyridazin-3-yl]pyridin-2-amine]",268 to 269
2,"Nc1cc(-c2c(-c3ccc(Cl)cc3)nc3cccnn23)ccn1 [Example Compound 16-2, 4-[2-(4-chlorophenyl)imidazo[1,2-b]pyridazin-3-yl]pyridin-2-amine]",252 to 253
3,"Cc1cccc(-c2nc3cccnn3c2-c2ccnc(NC(=O)c3ccc(Cl)cc3)c2)c1 [Example Compound 20-3, 4-chloro-N-{4-[2-(3-methylphenyl)imidazo[1,2-b]pyridazin-3-yl]pyridin-2-yl}benzamide]",211 to 212
4,"Cc1cccc(-c2nc3cccnn3c2-c2ccnc(NC(=O)c3cccc(F)c3)c2)c1 [Example Compound 20-4, 3-fluoro-N-{4-[2-(3-methylphenyl)imidazo[1,2-b]pyridazin-3-yl]pyridin-2-yl}benzamide]",204 to 205
5,"Cc1cccc(-c2nc3cccnn3c2-c2ccnc(NC(=O)c3ccccc3F)c2)c1 [Example Compound 20-5, 2-fluoro-N-{4-[2-(3-methylphenyl)imidazo[1,2-b]pyridazin-3-yl]pyridin-2-yl}benzamide]",180 to 181
6,"CC(=O)Nc1cc(-c2c(-c3cccc(C)c3)nc3cccnn23)ccn1 [Example Compound 20-7, N-{4-[2-(3-methylphenyl)imidazo[1,2-b]pyridazin-3-yl]pyridin-2-yl}acetamide]",227 to 228
7,"CCC(=O)Nc1cc(-c2c(-c3cccc(C)c3)nc3cccnn23)ccn1 [Example Compound 20-9, N-{4-[2-(3-methylphenyl)imidazo[1,2-b]pyridazin-3-yl]pyridin-2-yl}propanamide]",138 to 139
8,"COc1ccc(CC(=O)Nc2cc(-c3c(-c4cccc(C)c4)nc4cccnn34)ccn2)cc1 [Example Compound 20-12, 2-(4-methoxyphenyl)-N-{4-[2-(3-methylphenyl)imidazo[1,2-b]pyridazin-3-yl]pyridin-2-yl}acetamide]",213 to 214
9,"COc1ccc(C(=O)Nc2cc(-c3c(-c4cccc(Cl)c4)nc4cccnn34)ccn2)cc1 [Example Compound 21-3, N-{4-[2-(3-chlorophenyl)imidazo[1,2-b]pyridazin-3-yl]pyridin-2-yl}-4-methoxybenzamide]",223 to 224
10,"CCC(=O)Nc1cc(-c2c(-c3cccc(Cl)c3)nc3cccnn23)ccn1 [Example Compound 21-7, N-{4-[2-(3-chlorophenyl)imidazo[1,2-b]pyridazin-3-yl]pyridin-2-yl}propanamide]",192 to 193
11,"Cc1cc(-c2nc3cccnn3c2-c2ccnc(NC(=O)c3ccc(Cl)cc3)c2)ccc1F [Example Compound 21-17, 4-chloro-N-{4-[2-(4-fluoro-3-methylphenyl)imidazo[1,2-b]pyridazin-3-yl]pyridin-2-yl}benzamide]",207 to 209
12,"CCC(=O)Nc1cc(-c2c(-c3ccc(F)c(C)c3)nc3cccnn23)ccn1 [Example Compound 21-18, N-{4-[2-(4-fluoro-3-methylphenyl)imidazo[1,2-b]pyridazin-3-yl]pyridin-2-yl}propanamide]",166 to 167
13,"CCC(=O)Nc1cc(-c2c(-c3ccc(Cl)cc3)nc3cccnn23)ccn1 [Example Compound 21-28, N-{4-[2-(4-chlorophenyl)imidazo[1,2-b]pyridazin-3-yl]pyridin-2-yl}propanamide]",204 to 205
14,"Cc1cccc(-c2nc3cccnn3c2-c2ccnc(N(C(=O)C3CC3)C(=O)C3CC3)c2)c1 [Example Compound 23-1, N-(cyclopropylcarbonyl)-N-{4-[2-(3-methylphenyl)imidazo[1,2-b]pyridazin-3-yl]pyridin-2-yl}cyclopropanecarboxamide]",173 to 175
15,"Cc1cccc(NC(=O)Nc2cc(-c3c(-c4cccc(C)c4)nc4cccnn34)ccn2)c1 [Example Compound 27-2, N-(3-methylphenyl)-N′-{4-[2-(3-methylphenyl)imidazo[1,2-b]pyridazin-3-yl]pyridin-2-yl}urea]",202 to 203
16,"CCNC(=O)Nc1cc(-c2c(-c3cccc(C)c3)nc3cccnn23)ccn1 [Example Compound 27-4, N-ethyl-N′-(4-[2-(3-methylphenyl)imidazo[1,2-b]pyridazin-3-yl]pyridin-2-yl)urea]",212 to 213
17,"Cc1cccc(-c2nc3cccnn3c2-c2ccnc(NC(=O)NC(C)C)c2)c1 [Example Compound 27-6, N-isopropyl-N′-{4-[2-(3-methylphenyl)imidazo[1,2-b]pyridazin-3-yl]pyridin-2-yl}urea]",193 to 195
18,"CCCNC(=O)Nc1cc(-c2c(-c3ccc(F)c(C)c3)nc3cccnn23)ccn1 [Example Compound 28-4, N-{4-[2-(4-fluoro-3-methylphenyl)imidazo[1,2-b]pyridazin-3-yl]pyridin-2-yl}-N′-propylurea]",231 to 232
19,"Cc1cc(-c2nc3cccnn3c2-c2ccnc(NC(=O)NC3CCCCC3)c2)ccc1F [Example Compound 28-6, N-cyclohexyl-N′-{4-[2-(4-fluoro-3-methylphenyl)imidazo[1,2-b]pyridazin-3-yl]pyridin-2-yl}urea]",229 to 230
20,"CCNC(=O)Nc1cc(-c2c(-c3cccc(Cl)c3)nc3cccnn23)ccn1 [Example Compound 28-7, N-{4-[2-(3-chlorophenyl)imidazo[1,2-b]pyridazin-3-yl]pyridin-2-yl}-N′-ethylurea]",230 to 231
21,"CCNC(=O)Nc1cc(-c2c(-c3ccc(Cl)cc3)nc3cccnn23)ccn1 [Example Compound 28-8, N-{4-[2-(4-chlorophenyl)imidazo[1,2-b]pyridazin-3-yl]pyridin-2-yl}-N′-ethylurea]",223 to 224
22,"CCCNC(=O)Nc1cc(-c2c(-c3ccc(F)cc3)nc3cccnn23)ccn1 [Example Compound 28-9, N-{4-[2-(4-fluorophenyl)imidazo[1,2-b]pyridazin-3-yl]pyridin-2-yl}-N′-propylurea]",219 to 220
23,"CC(C)NC(=O)Nc1cc(-c2c(-c3ccc(F)cc3)nc3cccnn23)ccn1 [Example Compound 28-10, N-{4-[2-(4-fluorophenyl)imidazo[1,2-b]pyridazin-3-yl]pyridin-2-yl}-N′-isopropylurea]",222 to 223
24,"CCN(CC)C(=O)Nc1cc(-c2c(-c3cccc(C)c3)nc3cccnn23)ccn1 [Example Compound 32-1, N,N-diethyl-N′-{4-[2-(3-methylphenyl)imidazo[1,2-b]pyridazin-3-yl]pyridin-2-yl}urea]",166 to 167
25,"Cc1cccc(-c2nc3cccnn3c2-c2ccnc(NC(=O)N3CCc4ccccc4C3)c2)c1 [Example Compound 32-2, N-{4-[2-(3-methylphenyl)imidazo[1,2-b]pyridazin-3-yl]pyridin-2-yl}-3,4-dihydroisoquinoline-2-(1H)carboxamide]",122 to 124

# The next lines start with the values.
row,melting point [°C],Structure (SMILES)
1,218 to 219,"Cc1cc(-c2nc3c(C)cc(Cl)nn3c2-c2ccnc(N)c2)ccc1F [Example Compound 36-1, 4-[6-chloro-2-(4-fluoro-3-methylphenyl)-8-methylimidazo[1,2-b]pyridazin-3-yl]-2-pyridylamine]"
2,232 to 233,"Cc1cc(-c2nc3cc(C(C)(C)C)c(Cl)nn3c2-c2ccnc(N)c2)ccc1F [Example Compound 36-2, 4-[7-tert-butyl-6-chloro-2-(4-fluoro-3-methylphenyl)imidazo[1,2-b]pyridazin-3-yl]-2-pyridylamine]"
3,200 to 201,"COc1cc(Cl)nn2c(-c3ccnc(N)c3)c(-c3ccc(F)c(C)c3)nc12 [Example Compound 36-3, 4-[6-chloro-2-(4-fluoro-3-methylphenyl)-8-methoxyimidazo[1,2-b]pyridazin-3-yl]-2-pyridylamine]"
4,237 to 238,"CSc1cc(Cl)nn2c(-c3ccnc(N)c3)c(-c3ccc(F)c(C)c3)nc12 [Example Compound 36-4, 4-[6-chloro-2-(4-fluoro-3-methylphenyl)-8-(methylthio)imidazo[1,2-b]pyridazin-3-yl]-2-pyridylamine]"
5,250 to 251,"Cc1cccc(-c2nc3cccnn3c2-c2ccnc(N)n2)c1 [Example Compound 37-1, 4-[2-(3-methylphenyl)imidazo[1,2-b]pyridazin-3-yl]-2-pyrimidinamine]"
6,212 to 213,"Cc1cc(-c2nc3c(C)ccnn3c2-c2ccnc(N)c2)ccc1F [Example Compound 37-2, 4-[2-(4-fluoro-3-methylphenyl)-8-methylimidazo[1,2-b]pyridazin-3-yl]-2-pyridylamine]"
7,212 to 213,"Cc1cc(-c2nc3cc(C(C)(C)C)cnn3c2-c2ccnc(N)c2)ccc1F [Example Compound 37-3, 4-[7-tert-butyl-2-(4-fluoro-3-methylphenyl)imidazo[1,2-b]pyridazin-3-yl]-2-pyridylamine]"
8,219 to 220,"COc1ccnn2c(-c3ccnc(N)c3)c(-c3ccc(F)c(C)c3)nc12 [Example Compound 37-4, 4-[2-(4-fluoro-3-methylphenyl)-8-methoxyimidazo[1,2-b]pyridazin-3-yl]-2-pyridylamine]"
9,157 to 158,"Cc1cccc(-c2nc3cccnn3c2-c2ccnc(NCC(C)(C)C)c2)c1 [Example compound 6-18, N-(2,2-dimethylpropyl)-4-[2-(3-methylphenyl)imidazo[1,2-b]pyridazin-3-yl]pyridin-2-amine]"
10,155 to 156,"CCC(CC)Nc1cc(-c2c(-c3cccc(C)c3)nc3cccnn23)ccn1 [Example compound 6-20, N-(1-ethylpropyl)-4-[2-(3-methylphenyl)imidazo[1,2-b]pyridazin-3-yl]pyridin-2-amine]"
11,177 to 178,"COc1ccc(C(=O)Nc2cc(-c3c(-c4cccc(C)c4)nc4cccnn34)ccn2)cc1 [Example compound 20-2, 4-methoxy-N-{4-[2-(3-methylphenyl)imidazo[1,2-b]pyridazin-3-yl]pyridin-2-yl}benzamide]"
